From patent US10441663B2, “Methods for treating cancer” (Bicycle Therapeutics Limited, priority 2016, dated 2019)
*1 amine or outer side, *2 acyl side, *3 side chain or, on linkers, in order; H or OH if unused. Where a SMILES comes first, the peptide text is derived from it. Bridges are numbered along the chain shown (N, C = ends). [ ]: non-standard residue; d: D form. The star is where a group is joined. X1 = COc1cc2cc(c1Cl)N(C)C(=O)C[C@H](OC(=O)[C@H](C)N(C)C(=O)CCSSC(C)CCC(=O)*)[C@]1(C)O[C@H]1[C@H](C)[C@@H]1C[C@@](O)(NC(=O)O1)[C@H](OC)/C=C/C=C(\C)C2; 1Nal = N[C@@H](Cc1cccc2ccccc12)C(=O)O; TBMB = c1c(C[*:1])cc(C[*:3])cc1C[*:2]; Tle = CC(C)(C)[C@H](N)C(=O)O; βAla = NCCC(=O)O; Sar = CNCC(=O)O

System: HT1080 xenograft
Test: In vivo efficacy of BT1718 in HT1080 xenograft
Design: species or system Mus Musculus
Protocol: The objective of this study was to evaluate the in vivo anti-tumor efficacy of BT1718in treatment of HT1080, NCI-H292, NCI-H1975, MDA-MB-231, HCC1806, RPMI2650, HCT-15, HT-29 and SNU-16 xenograft in BALB/c nude mice.
The HT1080, NCI-H292, NCI-H1975, MDA-MB-231, HCC1806, RPMI2650, HCT-15, HT-29 and SNU-16 tumor cells were maintained in vitro as a monolayer culture in medium supplemented with 10% heat inactivated fetal bovine serum at 37° C. in an […]. The tumor cells will be routinely subcultured twice weekly by trypsin-EDTA treatment. The cells growing in an exponential growth phase will be harvested and counted for tumor inoculation.
Mouse was inoculated subcutaneously at the right flank with tumor cells for tumor development. The animals were randomized and treatment was started when the average tumor reaches certain volume for the efficacy study, the inoculating cell amounts and starting tumor size were shown as below in Table 9. The test article administration and the animal numbers in each group were shown in the experimental design in Table 10.
All the procedures related to animal handling, care and the treatment in the study were performed according to the guidelines of the Association for Assessment and Accreditation of Laboratory Animal Care (AAALAC). At the time of routine monitoring, the animals were daily checked for any effects of tumor growth and treatments on normal behavior such as mobility, food and water consumption (by looking only), body weight gain/loss (body weights were measured every day), eye/hair matting and any other abnormal effect as stated in the protocol. Death and observed clinical signs were recorded on the basis of the numbers of animals within each subset.
The major endpoint was to see if the tumor growth could be delayed or mice could be cured. Tumor size was measured three times weekly in two dimensions using a caliper, and the volume was expressed in mm^3 using the formula: V=0.5 a×b^2 where a and b are the long and short diameters of the tumor, respectively. The tumor size was then used for calculations of T/C value. The T/C value (in percent) is an indication of antitumor effectiveness; T and C are the mean volumes of the treated and control groups, respectively, on a given day.
TGI was calculated for each group using the formula: TGI (%)=[1−(Ti−T0)/(Vi−V0)]×100; Ti is the average tumor volume of a treatment group on a given day, T0 is the average tumor volume of the treatment group on the day of treatment start, Vi is the average tumor volume of the vehicle control group on the same day with Ti, and V0 is the average tumor volume of the vehicle group on the day of treatment start.
Summary statistics, including mean and the standard error of the mean (SEM), are provided for the tumor volume of each group at each time point.
Statistical analysis of difference in tumor volume among the groups was conducted on the data obtained at the best therapeutic time point after the final dose.
A one-way ANOVA was performed to compare tumor volume among groups, and when a significant F-statistics (a ratio of treatment variance to the error variance) was obtained, comparisons between groups were carried out with Games-Howell test. All data were analyzed using Prism. P<0.05 was considered to be statistically significant.

COc1cc2cc(c1Cl)N(C)C(=O)C[C@H](OC(=O)[C@H](C)N(C)C(=O)CCSSC(C)CCC(=O)NCCC(=O)N(C)CC(=O)N(C)CC(=O)N(C)CC(=O)N(C)CC(=O)N(C)CC(=O)N(C)CC(=O)N(C)CC(=O)N(C)CC(=O)N(C)CC(=O)N(C)CC(=O)N[C@@H](C)C(=O)N[C@H]1CSCc3cc4cc(c3)CSC[C@H](NC(=O)[C@@H](C)NC(=O)[C@H](Cc3cccc5ccccc35)NC(=O)[C@H](CCC(=O)O)NC(=O)[C@H](CC(N)=O)NC(=O)[C@@H](C)NC1=O)C(=O)N[C@@H](CCC(=O)O)C(=O)N[C@@H](CC(=O)O)C(=O)N[C@@H](Cc1ccccc1)C(=O)N[C@@H](Cc1ccc(O)cc1)C(=O)N[C@@H](CC(=O)O)C(=O)N[C@@H](C(C)(C)C)C(=O)N[C@H](C(N)=O)CSC4)[C@]1(C)O[C@H]1[C@H](C)[C@@H]1C[C@@](O)(NC(=O)O1)[C@H](OC)/C=C/C=C(\C)C2 (some centres unmarked) [BT1718] ({X1-βAla}-[Sar][Sar][Sar][Sar][Sar][Sar][Sar][Sar][Sar][Sar]AC[dA]NE[1Nal][dA]CEDFYD[Tle]C-NH2; linker 12-18-25 via TBMB (inferred))
animals with transient response on re-dosing (3 mg/kg biw): 1/3
animals that ultimately re-grew despite dosing (3 mg/kg biw re-dosing): 3/3
re-growth during dosing suspension (10 mg/kg biw, suspension period of 2 months): did not re-grow
response on re-dosing of the relapsed animal (10 mg/kg qw, re-growth in weeks 3-4 of re-dosing): transient response
Body Weight (1 mpk biw, day 0): 22.7 ± 0.5 g
Tumor Volume (1 mpk biw, day 0): 177 ± 6 mm^3
Body Weight (1 mpk biw, day 2): 22.2 ± 0.4 g
Tumor Volume (1 mpk biw, day 2): 265 ± 33 mm^3
Body Weight (1 mpk biw, day 4): 22.3 ± 0.2 g
Tumor Volume (1 mpk biw, day 4): 669 ± 107 mm^3
Body Weight (1 mpk biw, day 7): 22.2 ± 0.2 g
Tumor Volume (1 mpk biw, day 7): 1009 ± 156 mm^3
Body Weight (1 mpk biw, day 9): 21.5 ± 0.2 g
Tumor Volume (1 mpk biw, day 9): 1318 ± 146 mm^3
Body Weight (1 mpk biw, day 11): 20.1 ± 0.1 g
Tumor Volume (1 mpk biw, day 11): 1526 ± 160 mm^3
Body Weight (1 mpk biw, day 14): 19.4 ± 0.0 g
Tumor Volume (1 mpk biw, day 14): 1650 ± 218 mm^3
Body Weight (1 mpk qw, day 0): 22.5 ± 0.6 g
Tumor Volume (1 mpk qw, day 0): 178 ± 4 mm^3
Body Weight (1 mpk qw, day 2): 22.2 ± 0.5 g
Tumor Volume (1 mpk qw, day 2): 257 ± 26 mm^3
Body Weight (1 mpk qw, day 4): 22.6 ± 0.5 g
Tumor Volume (1 mpk qw, day 4): 627 ± 112 mm^3
Body Weight (1 mpk qw, day 7): 22.3 ± 0.3 g
Tumor Volume (1 mpk qw, day 7): 934 ± 176 mm^3
Body Weight (1 mpk qw, day 9): 22.2 ± 0.3 g
Tumor Volume (1 mpk qw, day 9): 1253 ± 182 mm^3
Body Weight (1 mpk qw, day 11): 20.5 ± 0.3 g
Tumor Volume (1 mpk qw, day 11): 1593 ± 251 mm^3
Body Weight (1 mpk qw, day 14): 19.6 ± 0.2 g
Tumor Volume (1 mpk qw, day 14): 1814 ± 320 mm^3
Body Weight (3 mpk biw, day 0): 23.1 ± 0.6 g
Tumor Volume (3 mpk biw, day 0): 178 ± 15 mm^3
Body Weight (3 mpk biw, day 2): 22.8 ± 0.9 g
Tumor Volume (3 mpk biw, day 2): 196 ± 16 mm^3
Body Weight (3 mpk biw, day 4): 22.5 ± 0.7 g
Tumor Volume (3 mpk biw, day 4): 100 ± 10 mm^3
Body Weight (3 mpk biw, day 7): 23.4 ± 0.8 g
Tumor Volume (3 mpk biw, day 7): 39 ± 8 mm^3
Body Weight (3 mpk biw, day 9): 24 ± 1.1 g
Tumor Volume (3 mpk biw, day 9): 18 ± 10 mm^3
Body Weight (3 mpk biw, day 11): 24.5 ± 0.9 g
Tumor Volume (3 mpk biw, day 11): 8 ± 8 mm^3
Body Weight (3 mpk biw, day 14): 24.7 ± 0.9 g
Tumor Volume (3 mpk biw, day 14): 3 ± 3 mm^3
Body Weight (3 mpk qw, day 0): 22.6 ± 0.3 g
Tumor Volume (3 mpk qw, day 0): 179 ± 18 mm^3
Body Weight (3 mpk qw, day 2): 21.4 ± 0.2 g
Tumor Volume (3 mpk qw, day 2): 191 ± 17 mm^3
Body Weight (3 mpk qw, day 4): 21.8 ± 0.8 g
Tumor Volume (3 mpk qw, day 4): 183 ± 90 mm^3
Body Weight (3 mpk qw, day 7): 22.0 ± 1.1 g
